Earlier results as cited in patent publication US20060136139A1, “Rapid computational identification of targets” (priority 2004, published 2006).

Key:
PP1 = details: experimental value beside the computed energy
PP2B = details: experimental value beside the computed energy
PP2C = details: experimental value beside the computed energy
PP2A = details: experimental value beside the computed energy
[1] = at concentrations used in experimental inhibition studies

aggregation of kinase inhibitor [1]	Structure (SMILES)	IC50 (PP1) [nM]	IC50 (PP2B) [nM]	IC50 (PP2C) [nM]	IC50 (PP2A) [nM]
–	C=C1[C@@H](O)[C@@H]2O[C@]3(CC[C@H](/C=C/[C@@H](C)[C@@H]4CC(C)=C[C@@]5(O[C@H](C[C@@](C)(O)C(=O)O)CC[C@H]5O)O4)O3)CC[C@H]2O[C@@H]1[C@@H](O)C[C@H](C)[C@H]1O[C@@]2(CCCCO2)CC[C@H]1C [okadaic acid]	42	5000	> 10000	0.51
exhibit this behavior	O=c1c(O)c(-c2ccc(O)c(O)c2)oc2cc(O)cc(O)c12 [quercetin]	–	–	–	–
